# Experimental data reported in patent US10865208B2, “ATG7 inhibitors and the uses thereof” (Millennium Pharmaceuticals, Inc., priority 2016, dated 2020).
# Target: recombinant human His-ATG7 enzyme (Homo sapiens (Human), UniProt O95352)
# Assay: ATG7 Enzyme Assay (HTRF/FRET, ATG3-GST and Flag-Gabarap)
# Assay type: biochemical
# Details: for inhibition at 0.123 µM: Concentration 0.123 μM; for inhibition at 0.111 µM: Concentration 0.111 μM
# Procedure: Example 97: ATG7 Enzyme Assay
# The total volume of the ATG7 enzymatic assay is 50 μL and contains 50 mM HEPES Hemisodium (pH 7.5), 0.05% BSA, 0.01% Tween-20, 25 mM NaCl, 5 mM MgCl2, 10 μM ATP, 250 μM GSH, 5 nM ATG3-GST, 5 nM Flag-Gabarap, 100 μM TCEP and 0.15 nM recombinant human His-ATG7 enzyme. The enzymatic reaction mixture, with and without inhibitor, was incubated at 24° C. for 105 min in a 384-well plate before termination with […] of Stop/Detection buffer (0.1M HEPES Hemisodium pH 7.5, 0.05% Tween20, 20 mM EDTA, 410 mM KF, 0.53 nM Europium-Cryptate labeled monoclonal anti-Flag M2 Antibody (CisBio International) and 8.125 μg/ml PHYCOLINK goat anti-GST allophycocyanin (XL-APC) antibody (Prozyme)). After incubation for 2 hours at 24° C., quantification of FRET is performed on the Pherostar™ (BMG Labtech). Percentage inhibition values at a single concentration or enzyme inhibition (IC50) values are determined from those curves. One skilled in the art will appreciate that the values generated either as percentage inhibition at a single concentration or IC50 values are subject to experimental variation.
# Chain of recombinant human His-ATG7 enzyme (O95352 whole entry): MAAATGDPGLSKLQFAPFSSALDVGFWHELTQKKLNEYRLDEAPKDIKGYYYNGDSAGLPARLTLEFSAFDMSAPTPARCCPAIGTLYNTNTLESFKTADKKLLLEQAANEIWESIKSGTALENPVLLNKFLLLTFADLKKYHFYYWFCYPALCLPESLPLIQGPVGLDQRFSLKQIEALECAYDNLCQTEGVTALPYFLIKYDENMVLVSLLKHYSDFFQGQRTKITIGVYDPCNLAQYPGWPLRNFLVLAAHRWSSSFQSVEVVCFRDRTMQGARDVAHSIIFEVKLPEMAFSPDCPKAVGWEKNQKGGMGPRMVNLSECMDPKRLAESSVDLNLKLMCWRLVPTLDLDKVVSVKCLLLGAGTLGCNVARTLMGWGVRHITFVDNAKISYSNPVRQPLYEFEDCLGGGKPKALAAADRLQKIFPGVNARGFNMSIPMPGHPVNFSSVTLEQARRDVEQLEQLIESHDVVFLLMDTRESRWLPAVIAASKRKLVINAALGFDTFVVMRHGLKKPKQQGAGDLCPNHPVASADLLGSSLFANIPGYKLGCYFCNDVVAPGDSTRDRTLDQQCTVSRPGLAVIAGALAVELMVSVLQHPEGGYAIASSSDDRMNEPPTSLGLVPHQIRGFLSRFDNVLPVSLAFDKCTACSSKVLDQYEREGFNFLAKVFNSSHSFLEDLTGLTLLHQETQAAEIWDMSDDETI
IC50 [nM],inhibition at 0.123 µM (read-out: Percent Inhibition) [%],inhibition at 0.111 µM (read-out: Percent Inhibition) [%],"inhibition at 0.069 µM (Concentration 0.069 μM, read-out: Percent Inhibition) [%]",Structure (SMILES)
50 to 100,62,–,–,"C=Cc1nn([C@@H]2O[C@H](COS(N)(=O)=O)[C@@H](O)[C@H]2O)c2ncnc(N)c12 [Compound I-18, [(2R,3S,4R,5R)-5-(4-amino-3-vinyl-1H-pyrazolo[3,4-d]pyrimidin-1-yl)-3,4-dihydroxytetrahydrofuran-2-yl]methyl Sulfamate]"
100 to 500,–,26,–,"Cc1ccccc1Sc1nn([C@H]2C[C@H](O)[C@@H](COS(N)(=O)=O)O2)c2ncnc(N)c12 [Compound I-176, [(2R,3S,5R)-5-{4-amino-3-[(2-methylphenyl)sulfanyl]-1H-pyrazolo[3,4-d]pyrimidin-1-yl}-3-hydroxytetrahydrofuran-2-yl]methyl sulfamate]"
100 to 500,–,50,–,"Nc1ncnc2c1c(Sc1c[nH]c3ccccc13)nn2[C@H]1C[C@H](O)[C@@H](COS(N)(=O)=O)O1 [Compound I-170, {(2R,3S,5R)-5-[4-amino-3-(1H-indol-3-ylsulfanyl)-1H-pyrazolo[3,4-d]pyrimidin-1-yl]-3-hydroxytetrahydrofuran-2-yl}methyl sulfamate]"
20 to 50,82,–,–,"Nc1ncnc2c1c(SCc1ccc(C(F)(F)F)cc1)nn2[C@@H]1O[C@H](COS(N)(=O)=O)[C@@H](O)[C@H]1O [Compound I-33, [(2R,3S,4R,5R)-5-(4-amino-3-{[4-(trifluoromethyl)benzyl]sulfanyl}-1H-pyrazolo[3,4-d]pyrimidin-1-yl)-3,4-dihydroxytetrahydrofuran-2-yl]methyl sulfamate]"
20 to 50,84,–,–,"Nc1ncnc2c1c(SCc1cccc(F)c1)nn2[C@@H]1O[C@H](COS(N)(=O)=O)[C@@H](O)[C@H]1O [Compound I-44, [(2R,3S,4R,5R)-5-{4-amino-3-[(3-fluorobenzyl)sulfanyl]-1H-pyrazolo[3,4-d]pyrimidin-1-yl}-3,4-dihydroxytetrahydrofuran-2-yl]methyl sulfamate]"
50 to 100,61,–,–,"Cc1ccccc1Sc1nn([C@@H]2O[C@H](COS(N)(=O)=O)[C@@H](O)[C@H]2O)c2ncnc(N)c12 [Compound I-74, [(2R,3S,4R,5R)-5-{4-amino-3-[(2-methylphenyl)sulfanyl]-1H-pyrazolo[3,4-d]pyrimidin-1-yl}-3,4-dihydroxytetrahydrofuran-2-yl]methyl sulfamate]"
50 to 100,–,68,–,"CCSc1nn([C@H]2C[C@H](O)[C@@H](COS(N)(=O)=O)O2)c2ncnc(N)c12 [Compound I-172, {(2R,3S,5R)-5-[4-amino-3-(ethylsulfanyl)-1H-pyrazolo[3,4-d]pyrimidin-1-yl]-3-hydroxytetrahydrofuran-2-yl}methyl Sulfamate]"
–,–,76,–,"Nc1ncnc2c1c(SCCO)nn2[C@@H]1O[C@H](COS(N)(=O)=O)[C@@H](O)[C@@H]1F [Compound I-151, [(2R,3R,4S,5R)-5-{4-amino-3-[(2-hydroxyethyl)sulfanyl]-1H-pyrazolo[3,4-d]pyrimidin-1-yl}-4-fluoro-3-hydroxytetrahydrofuran-2-yl]methyl Sulfamate]"
20 to 50,–,86,–,"Nc1ncnc2c1c(Sc1ccc(Cl)cn1)nn2[C@@H]1O[C@H](COS(N)(=O)=O)[C@@H](O)[C@@H]1F [Compound I-146, [(2R,3R,4S,5R)-5-{4-amino-3-[(5-chloropyridin-2-yl)sulfanyl]-1H-pyrazolo[3,4-d]pyrimidin-1-yl}-4-fluoro-3-hydroxytetrahydrofuran-2-yl]methyl sulfamate]"
100 to 500,–,45,–,"Nc1ncnc2c1c(Sc1ccc(OC(F)(F)F)cc1)nn2[C@H]1C[C@H](O)[C@@H](COS(N)(=O)=O)O1 [Compound I-197, [(2R,3S,5R)-5-(4-amino-3-{[4-(trifluoromethoxy)phenyl]sulfanyl}-1H-pyrazolo[3,4-d]pyrimidin-1-yl)-3-hydroxytetrahydrofuran-2-yl]methyl sulfamate]"
20 to 50,–,74,–,"COc1cccc(Sc2nn([C@H]3C[C@H](O)[C@@H](COS(N)(=O)=O)O3)c3ncnc(N)c23)c1 [Compound I-199, [(2R,3S,5R)-5-{4-amino-3-[(3-methoxyphenyl)sulfanyl]-1H-pyrazolo[3,4-d]pyrimidin-1-yl}-3-hydroxytetrahydrofuran-2-yl]methyl sulfamate]"
100 to 500,–,41,–,"Nc1ncnc2c1c(Sc1ccc3c(c1)CCC3)nn2[C@H]1C[C@H](O)[C@H](COS(N)(=O)=O)O1 [Compound I-216, {(2S,3S,5R)-5-[4-amino-3-(2,3-dihydro-1H-inden-5-ylsulfanyl)-1H-pyrazolo[3,4-d]pyrimidin-1-yl]-3-hydroxytetrahydrofuran-2-yl}methyl sulfamate]"
20 to 50,–,82,–,"Nc1ncnc2c1c(Sc1ccccc1F)nn2[C@@H]1O[C@H](COS(N)(=O)=O)[C@@H](O)[C@@H]1F [Compound I-109, [(2R,3R,4S,5R)-5-{4-amino-3-[(2-fluorophenyl)sulfanyl]-1H-pyrazolo[3,4-d]pyrimidin-1-yl}-4-fluoro-3-hydroxytetrahydrofuran-2-yl]methyl sulfamate]"
< 20,–,84,–,"Nc1ncnc2c1c(SC1CCC1)nn2[C@@H]1O[C@H](COS(N)(=O)=O)[C@@H](O)[C@H]1O [Compound I-56, {(2R,3S,4R,5R)-5-[4-amino-3-(cyclobutylsulfanyl)-1H-pyrazolo[3,4-d]pyrimidin-1-yl]-3,4-dihydroxytetrahydrofuran-2-yl}methyl sulfamate]"
100 to 500,51,–,–,"CN(C)CCSc1nn([C@@H]2O[C@H](COS(N)(=O)=O)[C@@H](O)[C@H]2O)c2ncnc(N)c12 [Compound I-80, [(2R,3S,4R,5R)-5-(4-amino-3-{[2-(dimethylamino)ethyl]sulfanyl}-1H-pyrazolo[3,4-d]pyrimidin-1-yl)-3,4-dihydroxytetrahydrofuran-2-yl]methyl sulfamate]"
20 to 50,73,–,–,"CSc1nn([C@@H]2O[C@H](COS(N)(=O)=O)[C@@H](O)[C@@H]2F)c2ncnc(N)c12 [Compound I-115, {(2R,3R,4S,5R)-5-[4-amino-3-(methylsulfanyl)-1H-pyrazolo[3,4-d]pyrimidin-1-yl]-4-fluoro-3-hydroxytetrahydrofuran-2-yl}methyl Sulfamate]"
20 to 50,82,–,–,"CC(C)(C)Sc1nn([C@@H]2O[C@H](COS(N)(=O)=O)[C@@H](O)[C@H]2O)c2ncnc(N)c12 [Compound I-53, {(2R,3S,4R,5R)-5-[4-amino-3-(tert-butylsulfanyl)-1H-pyrazolo[3,4-d]pyrimidin-1-yl]-3,4-dihydroxytetrahydrofuran-2-yl}methyl sulfamate]"
> 500,–,–,7,"Nc1ncnc2c1c(-c1ccccc1)nn2[C@@H]1O[C@H](COS(N)(=O)=O)[C@@H](O)[C@H]1O [Compound I-49, [(2R,3S,4R,5R)-5-(4-amino-3-phenyl-1H-pyrazolo[3,4-d]pyrimidin-1-yl)-3,4-dihydroxytetrahydrofuran-2-yl]methyl Sulfamate]"
> 500,13,–,–,"Nc1ncnc2c1c(-c1ncco1)nn2[C@@H]1O[C@H](COS(N)(=O)=O)[C@@H](O)[C@H]1O [Compound I-57, {(2R,3S,4R,5R)-5-[4-amino-3-(1,3-oxazol-2-yl)-1H-pyrazolo[3,4-d]pyrimidin-1-yl]-3,4-dihydroxytetrahydrofuran-2-yl}methyl sulfamate]"
50 to 100,–,65,–,"Nc1ncnc2c1c(SCc1cccnc1)nn2[C@@H]1O[C@H](COS(N)(=O)=O)[C@@H](O)[C@@H]1F [Compound I-121, [(2R,3R,4S,5R)-5-{4-amino-3-[(pyridin-3-ylmethyl)sulfanyl]-1H-pyrazolo[3,4-d]pyrimidin-1-yl}-4-fluoro-3-hydroxytetrahydrofuran-2-yl]methyl sulfamate]"
20 to 50,84,–,–,"Nc1ncnc2c1c(Sc1ccc(Cl)cc1)nn2[C@@H]1O[C@H](COS(N)(=O)=O)[C@@H](O)[C@H]1O [Compound I-64, [(2R,3S,4R,5R)-5-{4-amino-3-[(4-chlorophenyl)sulfanyl]-1H-pyrazolo[3,4-d]pyrimidin-1-yl}-3,4-dihydroxytetrahydrofuran-2-yl]methyl sulfamate]"
100 to 500,–,29,–,"NC(=O)CSc1nn([C@H]2C[C@H](O)[C@@H](COS(N)(=O)=O)O2)c2ncnc(N)c12 [Compound I-159, [(2R,3S,5R)-5-{4-amino-3-[(2-amino-2-oxoethyl)sulfanyl]-1H-pyrazolo[3,4-d]pyrimidin-1-yl}-3-hydroxytetrahydrofuran-2-yl]methyl sulfamate]"
< 20,–,88,–,"Cc1ccc(Sc2nn([C@@H]3O[C@H](COS(N)(=O)=O)[C@@H](O)[C@@H]3F)c3ncnc(N)c23)nc1 [Compound I-152, [(2R,3R,4S,5R)-5-{4-amino-3-[(5-methylpyridin-2-yl)sulfanyl]-1H-pyrazolo[3,4-d]pyrimidin-1-yl}-4-fluoro-3-hydroxytetrahydrofuran-2-yl]methyl sulfamate]"
